# Patent US7662832B2, “Pyrrolo[2,3-c]pyridine derivatives and processes for the preparation thereof” (priority 2004, dated 2010)
# Where a name gives a salt, the structure may show the parent alone.
# Target: Proton Pump (H^+/K^+-ATPase) (Sus scrofa, UniProt P19156)
# Experiment: Inhibitory effects on proton pump (H^+/K^+-ATPase) activity
# Type: biochemical
# Details: hog gastric vesicles; K^+ stimulated H^+/K^+-ATPase activity; 30 minutes at 37° C.
# Sequence of Proton Pump (H^+/K^+-ATPase) (P19156 2-1034 limits assumed): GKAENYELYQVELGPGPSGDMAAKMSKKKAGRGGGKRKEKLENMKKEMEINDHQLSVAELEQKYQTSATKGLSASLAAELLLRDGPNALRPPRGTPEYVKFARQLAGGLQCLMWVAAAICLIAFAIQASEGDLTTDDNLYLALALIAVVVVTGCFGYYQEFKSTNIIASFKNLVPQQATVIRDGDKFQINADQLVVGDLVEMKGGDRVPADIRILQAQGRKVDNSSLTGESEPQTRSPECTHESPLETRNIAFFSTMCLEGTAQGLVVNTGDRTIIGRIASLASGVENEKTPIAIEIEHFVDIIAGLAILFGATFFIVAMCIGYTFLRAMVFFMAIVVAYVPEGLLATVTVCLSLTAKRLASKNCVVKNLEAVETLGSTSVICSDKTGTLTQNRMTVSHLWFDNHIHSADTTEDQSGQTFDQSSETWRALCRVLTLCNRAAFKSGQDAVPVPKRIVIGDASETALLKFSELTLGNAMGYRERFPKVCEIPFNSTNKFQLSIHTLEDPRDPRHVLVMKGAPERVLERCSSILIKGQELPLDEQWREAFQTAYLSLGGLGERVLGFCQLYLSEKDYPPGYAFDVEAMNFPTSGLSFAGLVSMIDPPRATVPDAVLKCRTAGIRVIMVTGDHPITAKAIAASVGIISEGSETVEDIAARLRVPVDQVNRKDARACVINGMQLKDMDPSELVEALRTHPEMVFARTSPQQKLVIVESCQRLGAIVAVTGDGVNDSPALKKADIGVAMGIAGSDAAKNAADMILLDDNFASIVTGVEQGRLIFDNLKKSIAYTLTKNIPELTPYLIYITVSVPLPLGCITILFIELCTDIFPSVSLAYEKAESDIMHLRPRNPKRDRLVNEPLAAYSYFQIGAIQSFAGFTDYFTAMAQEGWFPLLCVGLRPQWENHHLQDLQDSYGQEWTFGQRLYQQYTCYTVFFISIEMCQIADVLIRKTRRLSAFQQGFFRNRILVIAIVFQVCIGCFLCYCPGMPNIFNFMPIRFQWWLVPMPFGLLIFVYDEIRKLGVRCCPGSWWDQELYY
# Sequence of Proton Pump (H^+/K^+-ATPase) (P18434 whole entry partner): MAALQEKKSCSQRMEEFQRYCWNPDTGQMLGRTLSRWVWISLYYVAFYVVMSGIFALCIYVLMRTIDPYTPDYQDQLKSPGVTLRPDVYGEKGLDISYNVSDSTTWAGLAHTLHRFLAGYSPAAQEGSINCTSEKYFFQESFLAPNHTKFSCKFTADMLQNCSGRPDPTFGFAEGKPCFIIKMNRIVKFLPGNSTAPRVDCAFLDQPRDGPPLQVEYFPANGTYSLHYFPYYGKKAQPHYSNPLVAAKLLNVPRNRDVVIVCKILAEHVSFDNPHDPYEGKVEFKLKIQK
row,IC50 [µM],SMILES
1,0.45,"CSc1ccc(-c2nccc3c(C)c(C)n(CC4CC4)c23)cc1 [Example 270, 1-cyclopropylmethyl-2,3-dimethyl-7-(4-methylsulfanylphenyl)-1H-pyrrolo[2,3-c]pyridine hydrochloride]"
2,0.122,"Cc1ccc(Cn2c(C)c(C)c3ccnc(CCc4ccccc4)c32)cc1 [Example 444, 2,3-dimethyl-1-(4-methylbenzyl)-7-phenethyl-1H-pyrrolo[2,3-c]pyridine hydrochloride]"
3,0.345,"C#CCn1c(C)c(C)c2ccnc(-c3ccc(C)cc3)c21 [Example 280, 2,3-dimethyl-1-(prop-2-ynyl)-7-(p-tolyl)-1H-pyrrolo[2,3-c]pyridine hydrochloride]"
4,1.98,"Cc1[nH]c2c(-c3ccc(F)cc3)nccc2c1C [Example 325, 7-(4-fluorophenyl)-2,3-dimethyl-1H-pyrrolo[2,3-c]pyridine hydrochloride]"
5,0.49,"COCCn1c(C)c(C)c2ccnc(-c3ccc(SC)cc3)c21 [Example 264, 1-(2-methoxyethyl)-2,3-dimethyl-7-(4-methylsulfanylphenyl)-1H-pyrrolo[2,3-c]pyridine hydrochloride]"
6,0.212,"COc1cccc(Cn2c(C)c(C)c3ccnc(COc4ccc(C)cc4C)c32)c1 [Example 68, 1-(3-methoxybenzyl)-2,3-dimethyl-7-(2,4-dimethylphenoxymethyl)-1H-pyrrolo[2,3-c]pyridine hydrochloride]"
7,4.05,"Cc1c(C)n(CC2CC2)c2c(N3CCc4ccccc4C3)nc(C(N)=O)cc12 [Example 754, 1-cyclopropylmethyl-7-(3,4-dihydro-1H-isoquinolin-2-yl)-2,3-dimethyl-1H-pyrrolo[2,3-c]pyridin-5-carboxamide]"
8,0.048,"COc1cccc(Cn2c(C)c(C)c3ccnc(CN(C)c4ccc(F)cc4)c32)c1 [Example 116, N-(4-fluorophenyl)-N-[1-(3-methoxybenzyl)-2,3-dimethyl-1H-pyrrolo[2,3-c]pyridin-7-ylmethyl]-methylamine hydrochloride]"
9,0.34,"COc1cccc(Cn2c(C)c(C)c3ccnc(N(C)Cc4ccc(F)cc4)c32)c1 [Example 151, 7-[N-(4-fluorobenzyl)-N-methyl]amino-1-(3-methoxybenzyl)-2,3-dimethyl-1H-pyrrolo[2,3-c]pyridine hydrochloride]"
10,0.029,"Cc1c(C)n(CC(C)C)c2c(N3CCc4ccccc4C3)nc(C(=O)N3CCNCC3)cc12 [Example 815, [7-(3,4-dihydro-1H-isoquinolin-2-yl)-1-isobutyl-2,3-dimethyl-1H-pyrrolo[2,3-c]pyridin-5-yl]-(piperazin-1-yl)-methanone hydrochloride]"
11,0.412,"Cc1ccc(CNCc2cc3c(C)c(C)n(Cc4cccc(F)c4)c3c(N3CCc4ccccc4C3)n2)cc1 [Example 867, N-[7-(3,4-dihydro-1H-isoquinolin-2-yl)-1-(3-fluorobenzyl)-2,3-dimethyl-1H-pyrrolo[2,3-c]pyridin-5-ylmethyl]-4-methylbenzylamine hydrochloride]"
12,0.19,"CC(C)=CCn1c(C)c(C)c2ccnc(N3CCc4ccc(F)cc4C3C)c21 (centres unmarked) [Example 545, 2-[2,3-dimethyl-1-(3-methylbut-2-enyl)-1H-pyrrolo[2,3-c]pyridin-7-yl]-7-fluoro-1-methyl-1,2,3,4-tetrahydroisoquinoline hydrochloride]"
13,0.258,"Cc1c(C)n(Cc2cccc(Cl)c2)c2c(N3CCc4ccccc4C3)nc(CN3CCN(C)CC3)cc12 [Example 875, 2-[1-(3-chlorobenzyl)-2,3-dimethyl-5-(4-methylpiperazin-1-ylmethyl)-1H-pyrrolo[2,3-c]pyridin-7-yl]-1,2,3,4-tetrahydroisoquinoline hydrochloride]"
14,0.13,"Cc1c(C)n(Cc2ccccc2)c2c(N3CCc4ccccc4C3C)nccc12 (centres unmarked) [Example 556, 2-(1-benzyl-2,3-dimethyl-1H-pyrrolo[2,3-c]pyridin-7-yl)-1-methyl-1,2,3,4-tetrahydroisoquinoline hydrochloride]"
15,0.43,"Cc1ccc(Cn2c(C)c(C)c3ccnc(NCc4ccc(F)cc4)c32)cc1 [Example 220, 7-(4-fluorobenzylamino)-2,3-dimethyl-1-(4-methylbenzyl)-1H-pyrrolo[2,3-c]pyridine hydrochloride]"
16,0.015,"C=CCn1c(C)c(C)c2cc(C(=O)N3CCCCC3)nc(N3CCc4ccccc4C3)c21 [Example 786, [1-allyl-7-(3,4-dihydro-1H-isoquinolin-2-yl)-2,3-dimethyl-1H-pyrrolo[2,3-c]pyridin-5-yl]-(piperidin-1-yl)-methanone hydrochloride]"
17,0.43,"COc1ccc(Cn2c(C)c(C)c3ccnc(N4CCc5ccccc5C4C)c32)cc1 (centres unmarked) [Example 558, 2-[1-(4-methoxybenzyl)-2,3-dimethyl-1H-pyrrolo[2,3-c]pyridin-7-yl]-1-methyl-1,2,3,4-tetrahydroisoquinoline hydrochloride]"

row,IC50 [µM],SMILES
1,0.077,"Cc1[nH]c2c(N3CCc4ccccc4C3)nc(C(=O)N3CCN(C)CC3)cc2c1C [Example 827, [7-(3,4-dihydro-1H-isoquinolin-2-yl)-2,3-dimethyl-1H-pyrrolo[2,3-c]pyridin-5-yl]-(4-methylpiperazin-1-yl)-methanone hydrochloride]"
2,0.5,"CCn1c(C)c(C)c2ccnc(N3CCc4ccccc4C3C3CC3)c21 (centres unmarked) [Example 569, 1-cyclopropyl-2-(1-ethyl-2,3-dimethyl-1H-pyrrolo[2,3-c]pyridin-7-yl)-1,2,3,4-tetrahydroisoquinoline hydrochloride]"
3,0.09,"C=Cc1ccc(-c2nccc3c(C)c(C)n(Cc4cccc(F)c4)c23)cc1 [Example 243, 1-(3-fluorobenzyl)-2,3-dimethyl-7-(4-vinylphenyl)-1H-pyrrolo[2,3-c]pyridine hydrochloride]"
4,3.2,"CCCn1c(C)c(C)c2cc(C#N)nc(N3CCc4ccccc4C3)c21 [Example 697, 7-(3,4-dihydro-1H-isoquinolin-2-yl)-2,3-dimethyl-1-propyl-1H-pyrrolo[2,3-c]pyridin-5-carbonitrile]"
5,0.003,"COc1cccc(Cn2c(C)c(C)c3cc(C(=O)N4CCN(C)CC4)nc(N4CCc5ccccc5C4)c32)c1 [Example 783, [7-(3,4-dihydro-1H-isoquinolin-2-yl)-1-(3-methoxybenzyl)-2,3-dimethyl-1H-pyrrolo[2,3-c]pyridin-5-yl]-(4-methylpiperazin-1-yl)-methanone hydrochloride]"
6,0.444,"COCCn1c(C)c(C)c2ccnc(CN(C)c3ccc(F)cc3)c21 [Example 120, N-(4-fluorophenyl)-N-[1-(2-methoxyethyl)-2,3-dimethyl-1H-pyrrolo[2,3-c]pyridin-7-ylmethyl]-methylamine hydrochloride]"
7,0.026,"Cc1c(C)n(Cc2cccc(F)c2)c2c(N3CCc4ccccc4C3)nc(CN3CCN(C)CC3)cc12 [Example 873, 2-[1-(3-fluorobenzyl)-2,3-dimethyl-5-(4-methylpiperazin-1-ylmethyl)-1H-pyrrolo[2,3-c]pyridin-7-yl]-1,2,3,4-tetrahydroisoquinoline hydrochloride]"
8,0.062,"Cc1c(C)n(Cc2cccc(F)c2)c2c(N3CCc4ccccc4C3)nc(N)cc12 [Example 847, 7-(3,4-dihydro-1H-isoquinolin-2-yl)-1-(3-fluorobenzyl)-2,3-dimethyl-1H-pyrrolo[2,3-c]pyridin-5-amine hydrochloride]"
9,0.313,"Cc1c(C)n(Cc2cccc(F)c2)c2c(N3CCc4ccccc4C3)nc(C(C)O)cc12 (centres unmarked) [Example 860, 1-[7-(3,4-dihydro-1H-isoquinolin-2-yl)-1-(3-fluorobenzyl)-2,3-dimethyl-1H-pyrrolo[2,3-c]pyridin-5-yl]-ethanol hydrochloride]"
10,0.33,"Cc1c(C)n(Cc2ccccc2F)c2c(N3CCc4ccccc4C3)nccc12 [Example 483, 1-(2-fluorobenzyl)-7-(1,2,3,4-tetrahydroisoquinolin-2-yl)-2,3-dimethyl-1H-pyrrolo[2,3-c]pyridine hydrochloride]"
11,0.12,"C=CCn1c(C)c(C)c2ccnc(N3CCc4ccccc4C3C3CC3)c21 (centres unmarked) [Example 570, 2-(1-allyl-2,3-dimethyl-1H-pyrrolo[2,3-c]pyridin-7-yl)-1-cyclopropyl-1,2,3,4-tetrahydroisoquinoline hydrochloride]"
12,0.011,"CCCn1c(C)c(C)c2cc(C(=O)N3CCNCC3)nc(N3CCc4ccccc4C3)c21 [Example 813, [7-(3,4-dihydro-1H-isoquinolin-2-yl)-2,3-dimethyl-1-propyl-1H-pyrrolo[2,3-c]pyridin-5-yl]-(piperazin-1-yl)-methanone hydrochloride]"
13,0.31,"C=Cc1ccc(-c2nccc3c(C)c(C)n(CCC(C)C)c23)cc1 [Example 256, 2,3-dimethyl-1-(3-methylbutyl)-7-(4-vinylphenyl)-1H-pyrrolo[2,3-c]pyridine hydrochloride]"
14,0.189,"Cc1c(C)n(Cc2ccc(C(C)(C)C)cc2)c2c(-c3ccc4ccccc4c3)nccc12 [Example 406, 1-(4-tert-butylbenzyl)-2,3-dimethyl-7-(naphthalen-2-yl)-1H-pyrrolo[2,3-c]pyridine hydrochloride]"
15,0.13,"Cc1c(C)n(CCc2ccc(S(C)(=O)=O)cc2)c2c(N3CCc4ccccc4C3)nccc12 [Example 512, 1-[2-(4-methylsulfonylphenyl)ethyl]-7-(1,2,3,4-tetrahydroisoquinolin-2-yl)-2,3-dimethyl-1H-pyrrolo[2,3-c]pyridine hydrochloride]"
16,0.08,"C#CCn1c(C)c(C)c2cc(C(=O)N3CCCCC3)nc(N3CCc4ccccc4C3)c21 [Example 802, [7-(3,4-dihydro-1H-isoquinolin-2-yl)-2,3-dimethyl-1-(prop-2-ynyl)-1H-pyrrolo[2,3-c]pyridin-5-yl]-(piperidin-1-yl)-methanone hydrochloride]"

row,SMILES,IC50 [µM]
1,"C=CCn1c(C)c(C)c2ccnc(N3CCc4ccccc4C3)c21 [Example 485, 1-allyl-7-(1,2,3,4-tetrahydroisoquinolin-2-yl)-2,3-dimethyl-1H-pyrrolo[2,3-c]pyridine citrate]",0.006
2,"C=CCn1c(C)c(C)c2ccnc(N3CCc4ccccc4C3)c21 [Example 493, 1-allyl-7-(1,2,3,4-tetrahydroisoquinolin-2-yl)-2,3-dimethyl-1H-pyrrolo[2,3-c]pyridine benzenesulfonate]",0.004
